These results are taken from EP4737449A1 (Changchun Genescience Pharmaceutical Co., Ltd., priority 2023, dated 2025).

This test addresses T1, p53-Y220C mutant protein (Homo sapiens, UniProt P04637, Y220C).
T1 construct: The recombinant Y220C p53 DBD protein with his-tag
Description: In vitro DNA binding activity assay (TR-FRET). Format: biochemical. Conditions: concentration required to increase the binding activity of protein to DNA by 50%. Here is the method:
The activity of the compound to modulate the binding of the p53-Y220C mutant protein to DNA was detected using TR-FREt (Time-Resolved Fluorescence Resonance Energy Transfer). The recombinant Y220C p53 DBD protein with his-tag and the DNA sequence with biotin label were prepared firstly. Donor Eu(Europium)-SA(Streptavidin) can be bound to the DNA sequence through biotin, receptor for his antibody attached to alphaphycocyanin(APC, allophycocyanin), and his antibody can be bound to the Y220C p53 DBD protein with his-tag. When exposed to an excitation light with a wavelength of 340 nm, the donor Eu(Europium)-SA(Streptavidin) can emit fluorescence with a wavelength of 615 nm. If the donor and the receptor are close to each other, the donor will transfer part of the energy to the receptor and produce fluorescence with a wavelength of 665 nm. […] If there is no interaction, only 615 nm fluorescence is produced. • 1) Experimental steps • a. Adding 4 µL of dilute compound solution to each well of a 384-well microplate; • a. Adding 4 µL of 4X P53 working solution to each well of the 384-well microplate; • c. Sealing the 384-well microplate and equilibrating the system at room temperature for 60 min; • d. Adding 4 µl of biotin DNA solution to the 384-well microplate; • e. Adding 4 µl of 4X test solution (MAb Anti-6His-Eu and streptavidin-d2) to each well of the 384-well microplate; • f. Incubating overnight in the dark; and • g. Reading data of 665 nm and 615 nm wavelengths on the BMG multifunctional microplate reader. • 2) Data analysis • a. Calculating the ratio for each well (Ratio665 nm/615 nm-Ratiobackground); • b. Calculating the activity percentage (%activity) as follows: C = (Ave_Ac−Ave_Ba)/(Ave_Dc−Ave_Bd) [formula] R data = (A−Ave_Ba−CD)/(D−Ave_Bd)*(Ave_Dc−Ave_Bd) [formula] % Activity = R data/Ave_VC*100 [formula] • A: Fluorescence intensity of the sample at 665 nm; D: Fluorescence intensity of the sample at 615 nm; • Ba: Background fluorescence intensity of the culture plate at 665 nm; Bd: Background fluorescence intensity of the culture plate at 615 nm; • Dc: Background fluorescence intensity of HIS-E at 615 nm; Ac: Background fluorescence intensity of streptavidin-d2 at 665 nm); and • c. Calculating SC150 and plotting dose-effect curve
Compared to the absence of the compound of the present invention, the activation percentage of binding of the p53 mutant protein to DNA in the presence of the compound of the present invention is expressed as SC150, which indicates the concentration of the compound required to increase the DNA binding activity of the p53 mutant protein by 50%. The SC150 is calculated using Prism™.

`CC(C)c1c(C#CCNC(=O)c2cnn(C(C)(C)C)c2N)nn2c(N[C@@H]3CCN(C)C[C@@H]3F)cccc12` [Compound 362, 5-amino-1-tert-butyl-N-(3-(7-{[(3S,4R)-3-fluoro-1-methylpiperidin-4-yl]amino}-3-(prop-2-yl)pyrazolo[1,5-a]pyridin-2-yl)prop-2-yn-1-yl)-1H-pyrazole-4-carboxamide] had an SC150 of 98 nM.

`Cc1cc(C(=O)NCC#Cc2nn3c(N[C@@H]4CCN(C)C[C@@H]4F)cccc3c2CC(F)(F)F)cn1C` [Compound 273, N-[3-(7-{[(3S,4R)-3-fluoro-1-methylpiperidin-4-yl]amino}-3-(2,2,2-trifluoroethyl)pyrazolo[1,5-a]pyridin-2-yl)prop-2-yn-1-yl]-1,5-dimethyl-1H-pyrrole-3-carboxamide] yielded an SC150 of 11 nM.

`CN1CC[C@@H](Nc2cccc3c(CC(F)(F)F)c(C#CCNC(=O)c4ccc(=O)n(C)c4)nn23)[C@@H](F)C1` [Compound 265, N-[3-(7-{[(3S,4R)-3-fluoro-1-methylpiperidin-4-yl]amino}-3-(2,2,2-trifluoroethyl)pyrazolo[1,5-a]pyridin-2-yl)prop-2-yn-1-yl]-1-methyl-6-oxo-1,6-dihydropyridine-3-carboxamide] gave an SC150 of 40 nM.

`COc1nn(C(C)(C)C)cc1C(=O)NCC#Cc1nn2c(N[C@@H]3CCN(C)C[C@@H]3F)cccc2c1CC(F)(F)F` [Compound 043] came in with an SC150 of 86 nM.

In turn, `CN1CC[C@@H](Nc2cccc3c(CC(F)(F)F)c(C#CCNC(=O)c4cnn(C5(C)CC5)c4)nn23)[C@@H](F)C1` [Compound 010, N-[3-(7-{[(3S,4R)-3-fluoro-1-methylpiperidin-4-yl]amino}-3-(2,2,2-trifluoroethyl)pyrazolo[1,5-a]pyridin-2-yl)prop-2-yn-1-yl]-1-(1-methylcyclopropyl)-1H-pyrazole-4-carboxamide] returned an SC150 of 9 nM.

For `Cc1cc(N[C@@H]2CCN(C)C[C@@H]2F)n2nc(C#CCNC(=O)c3cnn(C(C)(C)C)c3N)c(CC(F)(F)F)c2c1` [Compound 360, 5-amino-1-tert-butyl-N-[3-(7-{[(3S,4R)-3-fluoro-1-methylpiperidin-4-yl]amino}-5-methyl-3-(2,2,2-trifluoroethyl)pyrazolo[1,5-a]pyridin-2-yl)prop-2-yn-1-yl]-1H-pyrazole-4-carboxamide], the SC150 turned out to be 160 nM.

On to `CN1CC[C@@H](Nc2cccc3c(CC(F)(F)F)c(C#CCNC(=O)c4cnn(C)n4)nn23)[C@@H](F)C1` [Compound 325, N-[3-(7-{[(3S,4R)-3-fluoro-1-methylpiperidin-4-yl]amino}-3-(2,2,2-trifluoroethyl)pyrazolo[1,5-a]pyridin-2-yl)prop-2-yn-1-yl]-2-methyl-2H-1,2,3-triazole-4-carboxamide], for which the SC150 is 35 nM.

`CN1CC[C@@H](Nc2cccc3c(CC(F)(F)F)c(C#CCNC(=O)c4cnn(-c5ccccc5)c4)nn23)[C@@H](F)C1` [Compound 015, N-[3-(7-{[(3S,4R)-3-fluoro-l-methylpiperidin-4-yl]amino}-3-(2,2,2-trifluoroethyl)pyrazolo[1,5-a]pyridin-2-yl)prop-2-yn-1-yl]-1-phenyl-1H-pyrazole-4-carboxamide] registered an SC150 of 62 nM.

Consider `CN1CC[C@@H](Nc2cccc3c(CC(F)(F)F)c(C#CCNC(=O)c4cnn(C5(O)CC5)c4)nn23)[C@@H](F)C1` [Compound 303, N-[3-(7-{[(3S,4R)-3-fluoro-1-methylpiperidin-4-yl]amino}-3-(2,2,2-trifluoroethyl)pyrazolo[1,5-a]pyridin-2-yl)prop-2-yn-1-yl]-1-(1-hydroxycyclopropyl)-1H-pyrazole-4-carboxamide], for which the SC150 is reported as 14 nM.

For `COc1cccc(C(=O)NCC#Cc2nn3c(N[C@@H]4CCN(C)C[C@@H]4F)cccc3c2CC(F)(F)F)c1` [Compound 072, N-[3-(7-{[(3S,4R)-3-fluoro-1-methylpiperidin-4-yl]amino}-3-(2,2,2-trifluoroethyl)pyrazolo[1,5-a]pyridin-2-yl)prop-2-yn-1-yl]-3-methoxybenzamide], the SC150 stood at 41 nM.

As for `CN1CCC(n2cc(C(=O)NCC#Cc3nn4c(N[C@@H]5CCN(C)C[C@@H]5F)cccc4c3CC(F)(F)F)cn2)CC1` [Compound 012, N-[3-(7-{[(3S,4R)-3-fluoro-1-methylpiperidin-4-yl]amino}-3-(2,2,2-trifluoroethyl)pyrazolo[1,5-a]pyridin-2-yl)prop-2-yn-1-yl]-1-(1-methylpiperidin-4-yl)-1H-pyrazole-4-carboxamide], the SC150 was found to be 4 nM.

Regarding `CN1CC2CCC(C1)C2Nc1cccc2c(CC(F)(F)F)c(C#CCNC(=O)c3cnn(C(C)(C)C)c3N)nn12` (stereo not drawn) [Compound 368, 5-amino-1-(tert-butyl)-N-(3-(7-((3-methyl-3-azabicyclo[3.2.1]octan-8-yl)amino)-3-(2,2,2-trifluoroethyl)pyrazolo[1,5-a]pyridin-2-yl)prop-2-yn-1-yl)-1H-pyrazole-4-carboxamide], the SC150 was 57 nM.

With `CC(C)(C)n1ncc(C(=O)NCC#Cc2nn3c(NC4CCOCC4)cccc3c2CC(F)(F)F)c1N` [Compound 361, 5-amino-1-tert-butyl-N-(3-(7-[(tetrahydro-2H-pyran-4-yl)amino]-3-(2,2,2-trifluoroethyl)pyrazolo[1,5-a]pyridin-2-yl)prop-2-yn-1-yl)-1H-pyrazole-4-carboxamide], the SC150 came out at 49 nM.

As to `CN1CCC2(CC1)CC(Nc1cccc3c(CC(F)(F)F)c(C#CCNC(=O)c4cnn(C(C)(C)C)c4N)nn13)C2` [Compound 367], the SC150 is given as 27 nM.

Regarding `CN1CC[C@@H](Nc2cccc3c(CC(F)(F)F)c(C#CCNC(=O)c4cnn(C5CCOCC5)c4)nn23)[C@@H](F)C1` [Compound 013, N-[3-(7-{[(3S,4R)-3-fluoro-1-methylpiperidin-4-yl]amino}-3-(2,2,2-trifluoroethyl)pyrazolo[1,5-a]pyridin-2-yl)prop-2-yn-1-yl]-1-((tetrahydro-2H-pyran-4-yl))-1H-pyrazole-4-carboxamide], the SC150 is on record as 7 nM.

As for `CN1CC[C@@H](Nc2cccc3c(CC(F)(F)F)c(C#CCNC(=O)c4cn(C(C)(C)C)nc4O)nn23)[C@@H](F)C1` [Compound 356, 1-(tert-butyl)-N-[3-(7-{[(3S,4R)-3-fluoro-1-methylpiperidin-4-yl]amino}-3-(2,2,2-trifluoroethyl)pyrazolo[1,5-a]pyridin-2-yl)prop-2-yn-1-yl]-3-hydroxy-1H-pyrazole-4-carboxamide], the SC150 worked out at 87 nM.

Take `CN1CCCC(Nc2cccc3c(CC(F)(F)F)c(C#CCNC(=O)c4cnn(C(C)(C)C)c4N)nn23)CC1` (single isomer, unassigned) [Compound 369-A, 5-amino-1-tert-butyl-N-(3-(7-[(1-methylazepan-4-yl)amino]-3-(2,2,2-trifluoroethyl)pyrazolo[1,5-a]pyridin-2-yl)prop-2-yn-1-yl)-1H-pyrazole-4-carboxamide]: the SC150 is listed as 8 nM.

`CN1CC[C@@H](Nc2cccc3c(CC(F)(F)F)c(C#CCNC(=O)c4cnn(C5COC5)c4)nn23)[C@@H](F)C1` [Compound 009, N-[3-(7-{[(3S,4R)-3-fluoro-1-methylpiperidin-4-yl]amino}-3-(2,2,2-trifluoroethyl)pyrazolo[1,5-a]pyridin-2-yl)prop-2-yn-1-yl]-1-(oxetan-3-yl)-1H-pyrazole-4-carboxamide]: the SC150 came out at 7 nM.
